Experimental data published in US20260242335A1, “HETEROCYCLOALKYL BETA-HYDROXY ALKYL AMINES FOR USE IN THE TREATMENT OF HYPERGLYCAEMIA AND DISORDERS CHARACTERISED BY HYPERGLYCAEMIA” (ATROGI AB, priority 2023, published 2026).
Structures can show the parent of a compound that is named as a salt.

Tests used:
L6-myotubes [1] = test: Glucose uptake (3H-2-deoxyglucose) in differentiated L6-myotubes, compared to isoproterenol; type: cell-based; conditions: compound at 10 μM vs isoproterenol at 10 μM, read-out: Biological example 1: glucose uptake activity compared to that of isoproterenol
Procedure: (§1) L6-myoblasts were grown in Dulbecco's Modified Eagle's Medium (DMEM) containing 1 g/L glucose supplemented with 10% fetal bovine serum, 2 mM L-Glutamine, 50 U/mL penicillin, […] streptomycin and 10 mM HEPES. Cells were plated at 1×10^5 cells per mL in 24-well plates. After reaching 90% confluence the cells were grown in medium containing 2% FBS for 7 days where upon cells differentiated into myotubes.
Differentiated L6-myotubes were serum-starved overnight in medium containing 0.5% fatty-acid free BSA and stimulated with an agonist, with a final concentration of 1×10^−5 M. After 1 h 40 min the cells were washed with warm glucose free medium or PBS twice and another portion of agonist was added to the glucose free medium. After 20 min the cells were exposed to 50 nM ^3H-2-deoxyglucose for another 10 min before washed in ice cold glucose free medium or PBS three times and lysed in 400 μL/well 0.2 M NaOH for 1 h at 60° C. The cell lysate was mixed with 4 mL scintillation buffer (Emulsifier Safe, Perkin Elmer) and the radioactivity was detected in a p-counter (Tri-Carb 4810TR, Perkin Elmer). The activity for each compound is compared to that of isoproterenol.

L6-myotubes [2] = test: Measurement of intracellular cAMP levels (alpha screen cAMP kit) in differentiated cells, compared to isoproterenol; type: cell-based; conditions: 0.25 h, compound at 10 μM vs isoproterenol at 10 μM, 15 min stimulation, read-out: Biological example 2: intracellular cAMP level activity compared to that of isoproterenol
Procedure: as §1
Differentiated cells were serum-starved overnight and stimulated with an agonist, final concentration 1×10^−5 M, for 15 min in stimulation buffer (HBSS supplemented with 1% BSA, 5 mM HEPES and 1 mM IBMX, pH 7.4). The medium was aspirated and 100 μL of 95% EtOH was added to each well of the 24-well plate and cells were kept at −20° C. overnight. The EtOH was allowed to evaporate and 500 μL of lysis buffer (1% BSA, 5 mM HEPES and 0.3% Tween-20, pH 7.4) was added to each well. The plate was kept at −80° C. for 30 min and then at −20° C. until the day of detection when the samples were thawed. Intracellular cAMP levels were detected using an alpha screen cAMP kit (6760635D from Perkin Elmer). The activity for each compound is compared to that of isoproterenol.

COC(=O)N1CCC(CC(C)(C)NC[C@H](O)c2cncc(F)c2)CC1 [Example 49, Methyl (R)-4-(2-((2-(5-Fluoropyridin-3-yl)-2-hydroxyethyl)amino)-2-methylpropyl)piperidine-1-carboxylate dihydrochloride]
Emax at 10 µM (L6-myotubes [1]): > 75% | Emax at 10 µM (L6-myotubes [2]): < 25%

CC(C)(C[C@@H]1CCC(=O)NC1)NC[C@H](O)c1cncc(F)c1 [Example 37, (S)-5-(2-(((R)-2-(5-Fluoropyridin-3-yl)-2-hydroxyethyl)amino)-2-methylpropyl)piperidin-2-one hydrochloride]
Emax at 10 µM (L6-myotubes [1]): > 75% | Emax at 10 µM (L6-myotubes [2]): < 25%

CC(C)(C[C@H]1CCN(C(=O)OC(C)(C)C)C1)NC[C@H](O)c1cncc(F)c1 [Example 60, tert-Butyl (R)-3-(2-(((R)-2-(5-fluoropyridin-3-yl)-2-hydroxyethyl)-amino)-2-methylpropyl)pyrrolidine-1-carboxylate]
Emax at 10 µM (L6-myotubes [1]): 50 to 75% | Emax at 10 µM (L6-myotubes [2]): < 25%

CNC(=O)N1CCC(CC(C)(C)NC[C@H](O)c2cncc(F)c2)CC1 [Example 51, (R)-4-(2-((2-(5-Fluoropyridin-3-yl)-2-hydroxyethyl)amino)-2-methyl-propyl)-N-methylpiperidine-1-carboxamide dihydrochloride]
Emax at 10 µM (L6-myotubes [1]): 50 to 75% | Emax at 10 µM (L6-myotubes [2]): < 25%

CC(C)(C[C@@H]1CCNC(=O)C1)NC[C@H](O)c1cccc(F)c1 [Example 53, (S)-4-(2-(((R)-2-(3-Fluorophenyl)-2-hydroxyethyl)amino)-2-methyl-propyl)piperidin-2-one]
Emax at 10 µM (L6-myotubes [1]): > 75% | Emax at 10 µM (L6-myotubes [2]): > 75%

CC(=O)N1CC[C@@H](CC(C)(C)NC[C@H](O)c2cncc(F)c2)C1 [Example 70, 1-((S)-3-(2-(((R)-2-(5-Fluoropyridin-3-yl)-2-hydroxyethyl)amino)-2-methylpropyl)pyrrolidin-1-yl)ethan-1-one]
Emax at 10 µM (L6-myotubes [1]): > 75% | Emax at 10 µM (L6-myotubes [2]): < 25%

COC(=O)N1CCC[C@@H](CC(C)(C)NC[C@H](O)c2cccc(F)c2)C1 [Example 7, Methyl (S)-3-(2-(((R)-2-(3-fluorophenyl)-2-hydroxyethyl)amino)-2-methylpropyl)piperidine-1-carboxylate]
Emax at 10 µM (L6-myotubes [1]): > 75% | Emax at 10 µM (L6-myotubes [2]): 50 to 75%

CC(C)(C[C@H]1CNC(=O)C1)NC[C@H](O)c1cncc(F)c1 [Example 78, (R)-4-(2-(((R)-2-(5-Fluoropyridin-3-yl)-2-hydroxyethyl)amino)-2-methylpropyl)pyrrolidin-2-one dihydrochloride]
Emax at 10 µM (L6-myotubes [1]): > 75% | Emax at 10 µM (L6-myotubes [2]): < 25%

CC(C)(C[C@@H]1CCNC1)NC[C@H](O)c1cccc(F)c1 [Example 65, (R)-1-(3-Fluorophenyl)-2-((2-methyl-1-((S)-pyrrolidin-3-yl)propan-2-yl)amino)ethan-1-ol]
Emax at 10 µM (L6-myotubes [1]): > 75% | Emax at 10 µM (L6-myotubes [2]): > 75%

CNC(=O)N1CCC(CC(C)(C)NC[C@H](O)c2cccc(F)c2)CC1 [Example 45, (R)-4-(2-((2-(3-Fluorophenyl)-2-hydroxyethyl)amino)-2-methyl-propyl)-N-methylpiperidine-1-carboxamide]
Emax at 10 µM (L6-myotubes [1]): 50 to 75% | Emax at 10 µM (L6-myotubes [2]): < 25%

CC(C)(C[C@@H]1CCCN(C(=O)C(F)(F)F)C1)NC[C@H](O)c1cncc(F)c1 [Example 16, 2,2,2-Trifluoro-1-((S)-3-(2-(((R)-2-(5-fluoropyridin-3-yl)-2-hydroxy-ethyl)amino)-2-methylpropyl)piperidin-1-yl)ethan-1-one]
Emax at 10 µM (L6-myotubes [1]): > 75% | Emax at 10 µM (L6-myotubes [2]): < 25%

CC(C)(CC1CCN(C(=O)OC(C)(C)C)CC1)NC[C@H](O)c1cncc(F)c1 [Example 33, tert-Butyl (R)-4-(2-((2-(5-fluoropyridin-3-yl)-2-hydroxyethyl)amino)-2-methylpropyl)piperidine-1-carboxylate]
Emax at 10 µM (L6-myotubes [1]): > 75% | Emax at 10 µM (L6-myotubes [2]): < 25%

CC(C)(C[C@H]1CCNC1=O)NC[C@H](O)c1cncc(F)c1 [Example 75, (R)-3-(2-(((R)-2-(5-Fluoropyridin-3-yl)-2-hydroxyethyl)amino)-2-methylpropyl)pyrrolidin-2-one dihydrochloride]
Emax at 10 µM (L6-myotubes [1]): 25 to 50% | Emax at 10 µM (L6-myotubes [2]): < 25%

CC(C)(C[C@@H]1CCN(S(C)(=O)=O)C1)NC[C@H](O)c1cncc(F)c1 [Example 71, (R)-1-(5-Fluoropyridin-3-yl)-2-((2-methyl-1-((S)-1-(methylsulfonyl)-pyrrolidin-3-yl)propan-2-yl)amino)ethan-1-ol]
Emax at 10 µM (L6-myotubes [1]): > 75% | Emax at 10 µM (L6-myotubes [2]): < 25%

CC(C)(C[C@@H]1CCCN(C(=O)C(C)(C)C)C1)NC[C@H](O)c1cccc(F)c1 [Example 5, 1-((S)-3-(2-(((R)-2-(3-Fluorophenyl)-2-hydroxyethyl)amino)-2-methylpropyl)piperidin-1-yl)-2,2-dimethylpropan-1-one]
Emax at 10 µM (L6-myotubes [1]): 50 to 75% | Emax at 10 µM (L6-myotubes [2]): < 25%

CN1CCC(CC(C)(C)NC[C@H](O)c2cccc(F)c2)CC1 [Example 32, (R)-1-(3-Fluorophenyl)-2-((2-methyl-1-(1-methylpiperidin-4-yl)-propan-2-yl)amino)ethan-1-ol dihydrochloride]
Emax at 10 µM (L6-myotubes [1]): 50 to 75% | Emax at 10 µM (L6-myotubes [2]): < 25%

CC(C)(C[C@@H]1CCN(C(=O)OC(C)(C)C)C1)NC[C@H](O)c1cncc(F)c1 [Example 68, tert-Butyl (S)-3-(2-(((R)-2-(5-fluoropyridin-3-yl)-2-hydroxyethyl)-amino)-2-methylpropyl)pyrrolidine-1-carboxylate]
Emax at 10 µM (L6-myotubes [1]): > 75% | Emax at 10 µM (L6-myotubes [2]): 25 to 50%

CC(=O)N1CCC[C@@H](CC(C)(C)NC[C@H](O)c2cccc(C(F)(F)F)n2)C1 [Example 22, 1-((S)-3-(2-(((S)-2-Hydroxy-2-(6-(trifluoromethyl)pyridin-2-yl)ethyl)-amino)-2-methylpropyl)piperidin-1-yl)ethan-1-one dihydrochloride]
Emax at 10 µM (L6-myotubes [1]): > 75% | Emax at 10 µM (L6-myotubes [2]): < 25%

CC(C)(C[C@@H]1CCNC1)NC[C@H](O)c1cncc(F)c1 [Example 69, (R)-1-(5-Fluoropyridin-3-yl)-2-((2-methyl-1-((S)-pyrrolidin-3-yl)-propan-2-yl)amino)ethan-1-ol]
Emax at 10 µM (L6-myotubes [1]): > 75% | Emax at 10 µM (L6-myotubes [2]): < 25%

CC(C)(C[C@H]1CCNC(=O)C1)NC[C@H](O)c1cncc(F)c1 [Example 54, (R)-4-(2-(((R)-2-(5-Fluoropyridin-3-yl)-2-hydroxyethyl)amino)-2-methylpropyl)piperidin-2-one]
Emax at 10 µM (L6-myotubes [1]): 50 to 75% | Emax at 10 µM (L6-myotubes [2]): < 25%

CC(C)(C[C@H]1CCN(C(=O)OC(C)(C)C)C1)NC[C@H](O)c1cccc(F)c1 [Example 56, tert-Butyl (R)-3-(2-(((R)-2-(3-fluorophenyl)-2-hydroxyethyl)amino)-2-methylpropyl)pyrrolidine-1-carboxylate]
Emax at 10 µM (L6-myotubes [1]): 50 to 75% | Emax at 10 µM (L6-myotubes [2]): < 25%

CC(C)(C[C@@H]1CCCNC1)NC[C@H](O)c1cccc(C(F)(F)F)n1 [Example 21, (S)-2-((2-Methyl-1-((S)-piperidin-3-yl)propan-2-yl)amino)-1-(6-(trifluoromethyl)pyridin-2-yl)ethan-1-ol]
Emax at 10 µM (L6-myotubes [1]): 50 to 75% | Emax at 10 µM (L6-myotubes [2]): < 25%

CC(C)(C[C@H]1CCNC(=O)C1)NC[C@H](O)c1cccc(F)c1 [Example 52, (R)-4-(2-(((R)-2-(3-Fluorophenyl)-2-hydroxyethyl)amino)-2-methyl-propyl)piperidin-2-one]
Emax at 10 µM (L6-myotubes [1]): 50 to 75% | Emax at 10 µM (L6-myotubes [2]): < 25%

CC(=O)N1CCC(CC(C)(C)NC[C@H](O)c2cncc(F)c2)CC1 [Example 34, (R)-1-(4-(2-((2-(5-fluoropyridin-3-yl)-2-hydroxyethyl)amino)-2-methylpropyl)piperidin-1-yl)ethan-1-one dihydrochloride]
Emax at 10 µM (L6-myotubes [1]): 50 to 75% | Emax at 10 µM (L6-myotubes [2]): < 25%

CC(C)(C[C@H]1CNC(=O)C1)NC[C@H](O)c1cccc(F)c1 [Example 76, (R)-4-(2-(((R)-2-(3-Fluorophenyl)-2-hydroxyethyl)amino)-2-methyl-propyl)pyrrolidin-2-one hydrochloride]
Emax at 10 µM (L6-myotubes [1]): > 75% | Emax at 10 µM (L6-myotubes [2]): < 25%

CC(C)(C[C@@H]1CCC(=O)NC1)NC[C@H](O)c1cccc(F)c1 [Example 36, (S)-5-(2-(((R)-2-(3-Fluorophenyl)-2-hydroxyethyl)amino)-2-methyl-propyl)piperidin-2-one hydrochloride]
Emax at 10 µM (L6-myotubes [1]): 50 to 75% | Emax at 10 µM (L6-myotubes [2]): < 25%

CC(=O)N1CCC[C@@H](CC(C)(C)NC[C@H](O)c2cccc(F)c2)C1 [Example 3, 1-((S)-3-(2-(((R)-2-(3-Fluorophenyl)-2-hydroxyethyl)amino)-2-methylpropyl)piperidin-1-yl)ethan-1-one hydrochloride]
Emax at 10 µM (L6-myotubes [1]): > 75% | Emax at 10 µM (L6-myotubes [2]): 50 to 75%
